In the CheMixHub viscosity set:

Assay: xn = mol fraction of the nth substance listed

FB(F)F + CCOc1ccccc1
viscosity [mPa·s], 101 kPa
Details	293.15 K	298.15 K	303.15 K
x1 = 0.00901	1.29	1.18	1.08
x1 = 0.1455	1.53	1.39	1.27
x1 = 0.2874	2.42	2.17	1.96
x1 = 0.3269	2.79	2.51	2.25
x1 = 0.3742	3.38	3.01	2.68
x1 = 0.3817	3.48	3.1	2.74
x1 = 0.4143	4	3.52	3.08
x1 = 0.4429	4.57	3.97	3.5
x1 = 0.456	4.87	4.24	3.7
x1 = 0.4744	5.39	4.69	4.06
x1 = 0.4962	6.02	5.19	4.48

N#C[S-].[NH4+] + CCn1cc[n+](C)c1.N#C[S-]
viscosity [mPa·s], 100 kPa
Details	298.15 K	303.15 K	308.15 K	313.15 K	318.15 K	323.15 K
x1 = 0.039	25.91	21.97	18.84	16.11	14.28	12.59
x1 = 0.099	29.91	25.16	21.4	18.21	16	14.03
x1 = 0.1395	31.58	26.49	22.47	19.09	16.71	14.62

Brc1ccccc1 + CN1CCCC1=O
viscosity [mPa·s], 101 kPa
Details	x2 = 0.1084	x2 = 0.2149	x2 = 0.3193	x2 = 0.4219	x2 = 0.5226	x2 = 0.6215	x2 = 0.7186	x2 = 0.8141	x2 = 0.9078
303.15 K	1.068	1.146	1.22	1.284	1.344	1.396	1.441	1.484	1.522
308.15 K	1.023	1.089	1.148	1.201	1.25	1.29	1.326	1.358	1.382
313.15 K	0.9408	1.005	1.061	1.113	1.159	1.199	1.236	1.268	1.295
318.15 K	0.8512	0.9073	0.9593	1.008	1.052	1.09	1.126	1.157	1.184

BrCCBr + CN1CCC[C@H]1c1cccnc1
viscosity [mPa·s], 101.33 kPa
Details	x2 = 0.121	x2 = 0.2341	x2 = 0.3736	x2 = 0.4915	x2 = 0.613	x2 = 0.7575	x2 = 0.8734
298.15 K	1.765	1.939	2.233	2.523	2.804	3.055	3.341
323.15 K	1.2	1.383	1.466	1.599	1.714	1.838	1.884
